The values below come from US20140206681A1, “BTK INHIBITORS” (priority 2013, published 2014).

Where two headings read alike, the source gives them in different places.

Usually IC50 stands for the point on the concentration scale where inhibition reaches its midpoint.

The target of assay [1] is T1, BTK enzyme (recombinant full-length BTK, hBTK) (Homo sapiens, UniProt Q06187).
T1 construct: recombinant protein from baculovirus-transfected Sf9 cells: full-length BTK, 6HIS-tag cleaved; 6HIS (cleaved yes); made in house; host or cells: baculovirus-transfected Sf9 cells
T1 sequence (Q06187 whole entry): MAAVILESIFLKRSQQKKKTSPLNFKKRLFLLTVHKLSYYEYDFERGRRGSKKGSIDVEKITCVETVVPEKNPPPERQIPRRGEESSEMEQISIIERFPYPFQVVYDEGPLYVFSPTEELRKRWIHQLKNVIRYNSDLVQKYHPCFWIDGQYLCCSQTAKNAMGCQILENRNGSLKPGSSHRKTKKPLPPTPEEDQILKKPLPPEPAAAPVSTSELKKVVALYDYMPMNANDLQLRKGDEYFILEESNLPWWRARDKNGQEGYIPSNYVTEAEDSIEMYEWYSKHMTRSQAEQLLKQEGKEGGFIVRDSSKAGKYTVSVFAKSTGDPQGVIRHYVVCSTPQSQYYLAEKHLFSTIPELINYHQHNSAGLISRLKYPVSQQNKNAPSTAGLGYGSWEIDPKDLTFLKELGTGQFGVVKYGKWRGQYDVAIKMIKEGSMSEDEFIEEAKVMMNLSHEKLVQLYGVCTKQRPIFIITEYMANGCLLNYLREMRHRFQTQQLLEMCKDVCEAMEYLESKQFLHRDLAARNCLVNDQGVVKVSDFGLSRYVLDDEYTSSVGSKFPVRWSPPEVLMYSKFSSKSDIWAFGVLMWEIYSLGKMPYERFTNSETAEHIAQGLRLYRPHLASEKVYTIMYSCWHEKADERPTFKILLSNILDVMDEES
Description: BTK enzyme activity assay, LANCE TR-FRET. The format is biochemical. The conditions noted are these: 50 pM hBTK, 2 μM biotin-A5-peptide, 25 μM ATP; 60 min compound & enzyme incubation; read-out: IC50 BTK activity value. Background: TR-FRET usually uses a lanthanide donor and a delayed reading to cut background.

The next assay deals with HeLa cells. Description: [3H]Adenosine uptake functional cellular assay. The assay is classed as cell-based. The conditions noted are these: accumulation of [3H]adenosine into HeLa cells, compound range 10 μM to […], read-out: Adenosine uptake inhibition IC50. As for the experimental part: Compounds are also screened in an adenosine uptake functional cellular assay using the protocol described below. The adenosine uptake inhibition assay may be used to identify compounds with the potential for a negative cardiovascular side effect.
Adenosine uptake activity was determined by monitoring the accumulation of tritiated adenosine into HeLa cells (ATCC catalog # CCL-2) using a PMT-based radiometric detection instrument. […] These cells were incubated overnight at 37° C. in a humidified atmosphere with 5% (v/v) CO2. After this time the growth medium was removed and replaced with 40 μL assay medium comprising: Hanks balanced salts solution (HBSS; Thermo Fisher Catalog # SH30268.01)+5% (v/v) FBS. […] 40 μL of compound in the assay medium was dispensed into individual wells of the Cytostar-T plates and the plates were incubated for 30 minutes under ambient laboratory conditions. Following this incubation, 20 μL of 500 nM [^3H]adenosine (American Radiolabeled Chemicals Inc. Catalog # ART0287) was added in the assay medium and incubated for a further 60 minutes under ambient laboratory conditions. The amount of radiolabel accumulation was then determined using a Perkin Elmer Topcount NXT microplate reader. In brief, HeLa cells adhere to the bottom of the Cytostar-T plate, uptake of [^3H]adenosine into these cells brings the radiolabel into sufficient proximity to excite the scintillant in the base of the plates. These events are captured by single PMT, time-resolved coincidence counting. IC50 values were determined by 4 parameter robust fit of counts per second values vs. (Log10) compound concentrations.

For “4-(8-amino-3-((6R,8aS)-3-oxooctahydroindolizin-6-yl)imidazo[1,5-a]pyrazin-1-yl)-3-(2-methoxyethoxy)-N-(4-(trifluoromethyl)pyridin-2-yl)benzamide [Example 199]”, the IC50 in assay [1] worked out at 1.9 nM; in the assay on HeLa cells, 7090 nM.
As for `CC1CC(=O)N2C[C@H](c3nc(-c4ccc(C(=O)Nc5cc(C(F)(F)F)ccn5)cc4)c4c(N)nccn34)CC[C@H]12` (stereo in doubt) [Example 63, 4-{8-amino-3-[(1S,6R,8aR)-1-methyl-3-oxooctahydroindolizin-6-yl]imidazo[1,5-a]pyrazin-1-yl}-N-[4-(trifluoromethyl)pyridin-2-yl]benzamide], the IC50 in assay [1] turned out to be 0.058 nM; with HeLa cells (Homo sapiens, HeLa), 71.7 nM.
The matching figures for `CC1CC(=O)N2C[C@H](c3nc(-c4ccc(C(=O)Nc5cc(C(F)(F)F)ccn5)cc4)c4c(N)nccn34)CC[C@@H]12` (stereo in doubt) [Example 65, 4-{8-amino-3-[(1R,6R,8aS)-1-methyl-3-oxooctahydroindolizin-6-yl]imidazo[1,5-a]pyrazin-1-yl}-N-[4-(trifluoromethyl)pyridin-2-yl]benzamide]: 0.085 nM and 132 nM.
Regarding `CN1CC[C@@H]2CC[C@@H](c3nc(-c4ccc(C(=O)Nc5cc(C(F)(F)F)ccn5)cc4)c4c(N)nccn34)CN2C1=O` [Example 83, 4-(8-amino-3-((4aS,7R)-2-methyl-1-oxooctahydro-1H-pyrido[1,2-c]pyrimidin-7-yl)imidazo[1,5-a]pyrazin-1-yl)-N-(4-(trifluoromethyl)pyridin-2-yl)benzamide], the IC50 in the assay on HeLa cells (Homo sapiens, HeLa) stood at 124 nM.
Same read-out and setting: under `CN1CC[C@H]2CC[C@H](c3nc(-c4ccc(C(=O)Nc5cc(C(F)(F)F)ccn5)cc4)c4c(N)nccn34)CN2C1=O` [Example 84, 4-(8-amino-3-((4aR,7S)-2-methyl-1-oxooctahydro-1H-pyrido[1,2-c]pyrimidin-7-yl)imidazo[1,5-a]pyrazin-1-yl)-N-(4-(trifluoromethyl)pyridin-2-yl)benzamide] stands 155 nM.
The same measure, in the same setting: under `COc1cc(C(=O)Nc2cc(C(F)(F)F)ccn2)ccc1-c1nc([C@@H]2CC[C@H]3CCC(=O)N3C2)n2ccnc(N)c12` [Example 88, 4-(8-amino-3-((6R,8aS)-3-oxooctahydroindolizin-6-yl)imidazo[1,5-a]pyrazin-1-yl)-3-methoxy-N-(4-(trifluoromethyl)pyridin-2-yl)benzamide] stands 699 nM.
For the compound `CC1(C)C[C@@H]2CC[C@@H](c3nc(-c4ccc(C(=O)Nc5cc(C(F)(F)F)ccn5)cc4)c4c(N)nccn34)CN2C1=O` [Example 95, 4-{8-amino-3-[(6R,8aS)-2,2-dimethyl-3-oxooctahydroindolizin-6-yl]imidazo[1,5-a]pyrazin-1-yl}-N-[4-(trifluoromethyl)pyridin-2-yl]benzamide], the IC50 in assay [1] was 11.4 nM.
Same read-out and setting: then `CCOc1cc(C(=O)Nc2cc(C(F)(F)F)ccn2)ccc1-c1nc([C@@H]2CC[C@H]3CC(C)(C)C(=O)N3C2)n2ccnc(N)c12` [Example 113, 4-{8-amino-3-[(6R,8aS)-2,2-dimethyl-3-oxooctahydroindolizin-6-yl]imidazo[1,5-a]pyrazin-1-yl}-3-ethoxy-N-[4-(trifluoromethyl)pyridin-2-yl]benzamide], with 0.54 nM.
With `Cc1c(C(F)(F)F)ccnc1NC(=O)c1ccc(-c2nc([C@@H]3CC[C@H]4CCC(=O)N4C3)n3ccnc(N)c23)cc1` [Example 122, 4-{8-amino-3-[(6R,8aS)-3-oxooctahydroindolizin-6-yl]imidazo[1,5-a]pyrazin-1-yl}-N-[3-methyl-4-(trifluoromethyl)pyridin-2-yl]benzamide], the 50% inhibitory concentration (IC50) in assay [1] is 12.4 nM.
Same read-out and setting: under `Nc1nccn2c([C@@H]3CC[C@H]4CCC(=O)N4C3)nc(-c3ccc(C(=O)Nc4cc(C(F)(F)F)cc(C5CCC5)n4)cc3)c12` [Example 126, 4-{8-amino-3-[(6R,8aS)-3-oxooctahydroindolizin-6-yl]limidazo[1,5-a]pyrazin-1-yl}-N-[6-cyclobutyl-4-(trifluoromethyl)pyridin-2-yl]benzamide] stands 766 nM; under `CCOc1cc(C(=O)Nc2cc(C(F)(F)F)ccn2)c(F)cc1-c1nc([C@@H]2CC[C@H]3CCC(=O)N3C2)n2c(Cl)cnc(N)c12` [Example 133, 4-{8-amino-5-chloro-3-[(6R,8aS)-3-oxooctahydroindolizin-6-yl]imidazo[1,5-a]pyrazin-1-yl}-5-ethoxy-2-fluoro-N-[4-(trifluoromethyl)pyridin-2-yl]benzamide], 0.55 nM.
Still for that read-out and setting: under `COc1cc(C(=O)Nc2cc(C(F)(F)F)ccn2)ccc1-c1nc([C@@H]2CC[C@H]3CCC(=O)N3C2)n2c(Cl)cnc(N)c12` [Example 143, 4-{8-amino-5-chloro-3-[(6R,8aS)-3-oxooctahydroindolizin-6-yl]imidazo[1,5-a]pyrazin-1-yl}-3-methoxy-N-[4-(trifluoromethyl)pyridin-2-yl]benzamide] stands 0.22 nM; under `Nc1ncc(Cl)n2c([C@@H]3CC[C@H]4CCC(=O)N4C3)nc(-c3ccc(C(=O)Nc4cc(C(F)(F)F)ccn4)cc3OC3CC3)c12` [Example 144, 4-{8-amino-5-chloro-3-[(6R,8aS)-3-oxooctahydroindolizin-6-yl]imidazo[1,5-a]pyrazin-1-yl}-3-(cyclopropyloxy)-N-[4-(trifluoromethyl)pyridin-2-yl]benzamide], 0.5 nM; under `Cc1cnc(NC(=O)c2ccc(-c3nc([C@@H]4CC[C@H]5CCC(=O)N5C4)n4c(Cl)cnc(N)c34)cc2)s1` [Example 154, 4-{8-amino-5-chloro-3-[(6R,8aS)-3-oxooctahydroindolizin-6-yl]imidazo[1,5-a]pyrazin-1-yl}-N-(5-methyl-1,3-thiazol-2-yl)benzamide], 0.81 nM.
On the same count and under the same terms, under `Cn1nc(NC(=O)c2ccc(-c3nc([C@@H]4CC[C@H]5CCC(=O)N5C4)n4ccnc(N)c34)cc2)cc1C(F)(F)F` [Example 171, 4-{8-amino-3-[(6R,8aS)-3-oxooctahydroindolizin-6-yl]imidazo[1,5-a]pyrazin-1-yl}-N-[1-methyl-5-(trifluoromethyl)-1H-pyrazol-3-yl]benzamide] stands 0.41 nM.
On to `Nc1nccn2c([C@@H]3CC[C@H]4CCC(=O)N4C3)nc(-c3ccc(C(=O)Nc4ncc[nH]4)cc3)c12` [Example 172, 4-{8-amino-3-[(6R,8aS)-3-oxooctahydroindolizin-6-yl]imidazo[1,5-a]pyrazin-1-yl}-N-1H-imidazol-2-ylbenzamide], for which the IC50 in assay [1] came to 50.7 nM.
The same measure, in the same setting: then `Nc1nccn2c([C@@H]3CC[C@H]4CCC(=O)N4C3)nc(-c3ccc(C(=O)Nc4cc(C(F)(F)F)on4)cc3)c12` [Example 173, 4-{8-amino-3-[(6R,8aS)-3-oxooctahydroindolizin-6-yl]imidazo[1,5-a]pyrazin-1-yl}-N-[5-(trifluoromethyl)isoxazol-3-yl]benzamide], with 245 nM; and `Nc1nccn2c([C@@H]3CC[C@H]4CCC(=O)N4C3)nc(-c3ccc(C(=O)Nc4cc(C(F)(F)F)no4)cc3)c12` [Example 174, 4-{8-amino-3-[(6R,8aS)-3-oxooctahydroindolizin-6-yl]imidazo[1,5-a]pyrazin-1-yl}-N-[3-(trifluoromethyl)isoxazol-5-yl]benzamide], with 241 nM.
For the compound `Cn1nc(NC(=O)c2ccc(-c3nc([C@@H]4CC[C@H]5CCC(=O)N5C4)n4ccnc(N)c34)cc2)cc1C1CC1` [Example 181, 4-{8-amino-3-[(6R,8aS)-3-oxooctahydroindolizin-6-yl]imidazo[1,5-a]pyrazin-1-yl}-N-(5-cyclopropyl-1-methyl-1H-pyrazol-3-yl)benzamide], the IC50 in assay [1] is 0.93 nM.
Still for that read-out and setting: then `CCOC(=O)c1oc(NC(=O)c2ccc(-c3nc([C@@H]4CC[C@H]5CCC(=O)N5C4)n4ccnc(N)c34)cc2)nc1C(F)(F)F` [Example 184, ethyl 2-{[(4-{8-amino-3-[(6R,8aS)-3-oxooctahydroindolizin-6-yl]imidazol[1,5-a]pyrazin-1-yl}phenyl)carbonyl]amino}-4-(trifluoromethyl)-1,3-oxazole-5-carboxylate], with 155 nM; and `Cc1cc(C(=O)Nc2cc(C(F)(F)F)n(C)n2)ccc1-c1nc([C@@H]2CC[C@H]3CCC(=O)N3C2)n2ccnc(N)c12` [Example 186, 4-{8-amino-3-[(6R,8aS)-3-oxooctahydroindolizin-6-yl]imidazo[1,5-a]pyrazin-1-yl}-3-methyl-N-[1-methyl-5-(trifluoromethyl)-1H-pyrazol-3-yl]benzamide], with 6.9 nM; and `CCOc1cc(C(=O)Nc2cc(C(F)(F)F)ccn2)ccc1-c1nc([C@@H]2CC[C@@H]3N(C2)C(=O)CC3(C)C)n2ccnc(N)c12` [Example 222, 4-(8-amino-3-((6R,8aS)-1,1-dimethyl-3-oxooctahydroindolizin-6-yl)imidazo[1,5-a]pyrazin-1-yl)-3-ethoxy-N-(4-(trifluoromethyl)pyridin-2-yl)benzamide], with 0.2 nM.
